Data from ChEMBL document CHEMBL1811789, “Synthesis and biological evaluation of (±)-benzhydrol derivatives as potent non-nucleoside HIV-1 reverse transcriptase inhibitors” (Bioorg Med Chem, 2011).

Key:
[1] = test system: Human immunodeficiency virus 1; experiment: Antiviral activity against wild type HIV1 3B infected in human C8166 cells assessed as inhibition of viral-induced cytopathogenicity after 3 days by syncytium formation assay; type: functional, organism-based; settings: Human immunodeficiency virus 1, 3B, C8166, 72 h
[2] = Cytotoxicity against human C8166 cells by MTT assay; type: cell-based
[3] = test system: Human immunodeficiency virus 1; experiment: Antiviral activity against […] HIV1 A17 harboring reverse transcriptase K103N and Y181C mutant infected in human C8166 cells assessed as inhibition of viral-induced cytopathogenicity after 3 days by syncytium formation assay; type: functional, organism-based; settings: Human immunodeficiency virus 1, A17, C8166, 72 h
[4] = Selectivity index, ratio of CC50 for human C8166 cells to EC50 for wild type HIV1 3B; type: toxicity, cell-based; settings: read-out: Ratio CC50/EC50

Compound	EC50 [1] [µM]	CC50 [2] [µM]	EC50 [3] [µM]	selectivity ratio [4]
Cc1cc(S(N)(=O)=O)ccc1NC(=O)COc1ccc(Cl)cc1C(=O)c1cc(Cl)cc(C#N)c1	0.00069	> 387	0.0014	> 563000
Cc1cc(S(N)(=O)=O)ccc1NC(=O)COc1ccc(Cl)cc1C(O)c1ccc(Cl)cc1Cl (racemic)	2.92	39.9	33.6	13.7
Cc1cc(S(N)(=O)=O)ccc1NC(=O)COc1ccc(Cl)cc1C(O)c1ccccc1 (racemic)	1.12	33.4	16.5	29.9
Cc1cc(S(N)(=O)=O)ccc1NC(=O)COc1ccc(Cl)cc1C(O)c1ccccc1C (racemic)	1.21	33.9	20.8	28
Cc1cccc(C(O)c2cc(Cl)ccc2OCC(=O)Nc2ccc(S(N)(=O)=O)cc2C)c1 (racemic)	0.48	33.1	9.7	69
Cc1ccc(C(O)c2cc(Cl)ccc2OCC(=O)Nc2ccc(S(N)(=O)=O)cc2C)cc1 (racemic)	0.65	38.7	13.4	59.3
Cc1cc(S(N)(=O)=O)ccc1NC(=O)COc1ccc(Cl)cc1C(O)c1ccccc1Cl (racemic)	1.3	32	20.4	24.6
Cc1cc(S(N)(=O)=O)ccc1NC(=O)COc1ccc(Cl)cc1C(O)c1cccc(Cl)c1 (racemic)	0.72	33.2	13	46.4
Cc1cc(S(N)(=O)=O)ccc1NC(=O)COc1ccc(Cl)cc1C(O)c1cccc(F)c1 (racemic)	0.48	37.6	6.61	78.5
Cc1cc(S(N)(=O)=O)ccc1NC(=O)COc1ccc(Cl)cc1C(O)c1cccc([N+](=O)[O-])c1 (racemic)	0.12	36.9	4.34	313
Cc1cc(S(N)(=O)=O)ccc1NC(=O)COc1ccc(Cl)cc1C(O)c1cccc(C)c1C (racemic)	9.02	218	216	24.1
Cc1ccc(C(O)c2cc(Cl)ccc2OCC(=O)Nc2ccc(S(N)(=O)=O)cc2C)c(C)c1 (racemic)	4.27	26.4	40.4	6.18
Cc1ccc(C)c(C(O)c2cc(Cl)ccc2OCC(=O)Nc2ccc(S(N)(=O)=O)cc2C)c1 (racemic)	0.81	35.5	14.3	43.7
Cc1cc(C)cc(C(O)c2cc(Cl)ccc2OCC(=O)Nc2ccc(S(N)(=O)=O)cc2C)c1 (racemic)	0.18	29.4	2.08	166
Cc1cc(S(N)(=O)=O)ccc1NC(=O)COc1ccc(Cl)cc1C(O)c1cc(Cl)ccc1Cl (racemic)	1.06	36.2	9.58	34.2
Cc1cc(S(N)(=O)=O)ccc1NC(=O)COc1ccc(Cl)cc1C(O)c1ccc(Cl)c(Cl)c1 (racemic)	2.15	24	31.6	11.2
Cc1cc(S(N)(=O)=O)ccc1NC(=O)COc1ccc(Cl)cc1C(O)c1cc(Cl)cc(Cl)c1 (racemic)	1.06	13.1	9.45	12.4
Cc1cc(S(N)(=O)=O)ccc1NC(=O)COc1ccc(Cl)cc1C(O)c1cc(Cl)cc(Br)c1 (racemic)	0.54	22.9	7.79	42.4
Cc1cc(S(N)(=O)=O)ccc1NC(=O)COc1ccc(Cl)cc1C(O)c1cc(Cl)cc(C#N)c1 (racemic)	0.39	31.6	6.84	80.8
Cc1cc(S(N)(=O)=O)ccc1NC(=O)COc1ccc(Cl)cc1C(O)c1cccc2ccccc12 (racemic)	0.39	31.1	8.47	80.1
Cc1cc(S(N)(=O)=O)ccc1NC(=O)COc1ccc(Cl)cc1C(O)c1ccc2ccccc2c1 (racemic)	1.09	15.7	10.7	14.3
Cc1cn([C@H]2C[C@H](N=[N+]=[N-])[C@@H](CO)O2)c(=O)[nH]c1=O [ZIDOVUDINE]	–	–	0.023	422000
